Data published in patent US20240226115A1, “AXL INHIBITOR COMPOUNDS” (ARCUS BIOSCIENCES, INC., priority 2021, published 2024).

Molecular target: T1, recombinant human TYRO3 (Homo sapiens, UniProt Q06418)
T1 construct: purchased Invitrogen
T1 sequence (Q06418 41-890): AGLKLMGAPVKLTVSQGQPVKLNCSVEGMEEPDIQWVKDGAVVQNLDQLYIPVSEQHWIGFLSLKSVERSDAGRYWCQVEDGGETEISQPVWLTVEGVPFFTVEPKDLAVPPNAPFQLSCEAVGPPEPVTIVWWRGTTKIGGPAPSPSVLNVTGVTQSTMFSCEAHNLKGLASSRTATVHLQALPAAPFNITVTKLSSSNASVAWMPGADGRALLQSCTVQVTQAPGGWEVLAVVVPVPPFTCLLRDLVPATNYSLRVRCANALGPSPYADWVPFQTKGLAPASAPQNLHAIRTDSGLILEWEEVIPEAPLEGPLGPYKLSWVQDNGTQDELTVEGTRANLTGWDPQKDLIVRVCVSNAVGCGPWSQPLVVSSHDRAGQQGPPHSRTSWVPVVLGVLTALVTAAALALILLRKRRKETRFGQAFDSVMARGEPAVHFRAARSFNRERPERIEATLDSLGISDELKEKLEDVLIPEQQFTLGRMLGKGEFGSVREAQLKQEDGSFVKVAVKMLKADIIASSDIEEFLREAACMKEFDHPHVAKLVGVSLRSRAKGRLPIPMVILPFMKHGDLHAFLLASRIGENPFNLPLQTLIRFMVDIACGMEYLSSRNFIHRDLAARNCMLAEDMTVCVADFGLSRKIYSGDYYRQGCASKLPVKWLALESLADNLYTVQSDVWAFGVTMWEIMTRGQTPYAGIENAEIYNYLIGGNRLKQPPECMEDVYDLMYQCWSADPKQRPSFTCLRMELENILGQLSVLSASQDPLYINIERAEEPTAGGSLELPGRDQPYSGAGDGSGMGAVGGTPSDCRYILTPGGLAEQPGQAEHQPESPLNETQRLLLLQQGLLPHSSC
Experiment: HTRF KinEASE-TK biochemical potency, TYRO3
Conditions: 1 nM TYRO3, 700 μM ATP
Method in brief: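 Enzyme preincubated with compound 1 h at RT; final 5 nM AXL or 1 nM TYRO3/MER, 800 nM TK substrate-biotin, 700 μM ATP, HEPES pH 7.4, MgCl2, 1% DMSO, 2 h at RT. HTRF 665/620 ratio read after streptavidin-XL665/cryptate antibody detection; percent activity relative to DMSO and pre-stopped controls.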

| IC50 [nM] | SMILES |
| --- | --- |
| < 100 | O=C1NCCOc2cc(-c3n[nH]c4ncc(-c5ccc6c(c5)CCC(NC5CCCC5)CC6)cc34)ccc21 (centres unmarked) [Example 42, 8-{5-[7-(Cyclopentylamino)-6,7,8,9-tetrahydro-5H-benzo[7]annulen-2-yl]-1H-pyrazolo[3,4-b]pyridin-3-yl}-2,3,4,5-tetrahydro-1,4-benzoxazepin-5-one] |
| < 100 | C[C@H]1CCCN1C1CCc2ccc(-c3cnc4[nH]nc(-c5ccc6c(c5)OCCNC6=O)c4c3)cc2CC1 (stereo partly drawn) [Example 43, 8-(5-{7-[(2S)-2-Methylpyrrolidin-1-yl]-6,7,8,9-tetrahydro-5H-benzo[7]annulen-2-yl}-1H-pyrazolo[3,4-b]pyridin-3-yl)-2,3,4,5-tetrahydro-1,4-benzoxazepin-5-one] |
| < 100 | C[C@@H]1CCCN1C1CCc2ccc(-c3cnc4[nH]nc(-c5ccc6c(c5)OCCNC6=O)c4c3)cc2CC1 (stereo partly drawn) [Example 44, 8-(5-{7-[(2R)-2-Methylpyrrolidin-1-yl]-6,7,8,9-tetrahydro-5H-benzo[7]annulen-2-yl}-1H-pyrazolo[3,4-b]pyridin-3-yl)-2,3,4,5-tetrahydro-1,4-benzoxazepin-5-one] |
| < 100 | O=C1NCCOc2cc(-c3n[nH]c4ncc(-c5ccc6c(c5)CCC(N[C@H]5CCOC5)CC6)cc34)ccc21 (stereo partly drawn) [Example 45, 8-[5-(7-{[(3S)—Oxolan-3-yl]amino}-6,7,8,9-tetrahydro-5H-benzo[7]annulen-2-yl)-1H-pyrazolo[3,4-b]pyridin-3-yl]-2,3,4,5-tetrahydro-1,4-benzoxazepin-5-one] |
| < 100 | O=C1NCCOc2cc(-c3n[nH]c4ncc(-c5ccc6c(c5)CCC(N[C@@H]5CCOC5)CC6)cc34)ccc21 (stereo partly drawn) [Example 46, 8-[5-(7-{[(3R)—Oxolan-3-yl]amino}-6,7,8,9-tetrahydro-5H-benzo[7]annulen-2-yl)-1H-pyrazolo[3,4-b]pyridin-3-yl]-2,3,4,5-tetrahydro-1,4-benzoxazepin-5-one] |
| < 100 | O=C1NCCOc2cc(-c3n[nH]c4ncc(-c5ccc6c(c5)CCC(N5CCOCC5)CC6)cc34)ccc21 (centres unmarked) [Example 47, 8-{5-[7-(Morpholin-4-yl)-6,7,8,9-tetrahydro-5H-benzo[7]annulen-2-yl]-1H-pyrazolo[3,4-b]pyridin-3-yl}-2,3,4,5-tetrahydro-1,4-benzoxazepin-5-one] |
| < 100 | O=C1NCCOc2cc(-c3n[nH]c4ncc(-c5ccc6c(c5)CCC(N5CCNCC5)CC6)cc34)ccc21 (centres unmarked) [Example 48, 8-{5-[7-(Piperazin-1-yl)-6,7,8,9-tetrahydro-5H-benzo[7]annulen-2-yl]-1H-pyrazolo[3,4-b]pyridin-3-yl}-2,3,4,5-tetrahydro-1,4-benzoxazepin-5-one] |
| < 100 | O=C1NCCOc2cc(-c3n[nH]c4ncc(-c5ccc6c(c5)CCC(N5CCC[C@@H]5CO)CC6)cc34)ccc21 (stereo partly drawn) [Example 49, 8-(5-{7-[(2R)-2-(Hydroxymethyl)pyrrolidin-1-yl]-6,7,8,9-tetrahydro-5H-benzo[7]annulen-2-yl}-1H-pyrazolo[3,4-b]pyridin-3-yl)-2,3,4,5-tetrahydro-1,4-benzoxazepin-5-one] |
| < 100 | O=C1NCCOc2cc(-c3n[nH]c4ncc(-c5ccc6c(c5)CCC(N5CCC[C@H]5CO)CC6)cc34)ccc21 (stereo partly drawn) [Example 50, 8-(5-{7-[(2S)-2-(Hydroxymethyl)pyrrolidin-1-yl]-6,7,8,9-tetrahydro-5H-benzo[7]annulen-2-yl}-1H-pyrazolo[3,4-b]pyridin-3-yl)-2,3,4,5-tetrahydro-1,4-benzoxazepin-5-one] |
| < 100 | O=C1NCCOc2cc(-c3n[nH]c4ncc(-c5ccc6c(c5)CCC(N5CC[C@@H](O)C5)CC6)cc34)ccc21 (stereo partly drawn) [Example 51, 8-(5-(7-((R)-3-Hydroxypyrrolidin-1-yl)-6,7,8,9-tetrahydro-5H-benzo[7]annulen-2-yl)-1H-pyrazolo[3,4-b]pyridin-3-yl)-3,4-dihydrobenzo[f][1,4]oxazepin-5(2H)-one] |
| < 100 | O=C1NCCOc2cc(-c3n[nH]c4ncc(-c5ccc6c(c5)CCC(N5CCC5)CC6)cc34)ccc21 (centres unmarked) [Example 52, 8-(5-(7-(Azetidin-1-yl)-6,7,8,9-tetrahydro-5H-benzo[7]annulen-2-yl)-1H-pyrazolo[3,4-b]pyridin-3-yl)-3,4-dihydrobenzo[f][1,4]oxazepin-5(2H)-one] |
| < 100 | O=C1NCCOc2cc(-c3n[nH]c4ncc(-c5ccc6c(c5)CCNCC6)cc34)ccc21 [Example 53, 8-(5-(2,3,4,5-Tetrahydro-1H-benzo[d]azepin-7-yl)-1H-pyrazolo[3,4-b]pyridin-3-yl)-3,4-dihydrobenzo[f][1,4]oxazepin-5(2H)-one] |
| < 100 | O=C1NCCOc2cc(-c3n[nH]c4ncc(-c5ccc6c(c5)CCNC6)cc34)ccc21 [Example 54, 8-(5-(1,2,3,4-Tetrahydroisoquinolin-6-yl)-1H-pyrazolo[3,4-b]pyridin-3-yl)-3,4-dihydrobenzo[f][1,4]oxazepin-5(2H)-one] |
| < 100 | O=C1NCCOc2cc(-c3n[nH]c4ncc(-c5ccc6c(c5)CNCC6)cc34)ccc21 [Example 55, 8-(5-(1,2,3,4-Tetrahydroisoquinolin-7-yl)-1H-pyrazolo[3,4-b]pyridin-3-yl)-3,4-dihydrobenzo[f][1,4]oxazepin-5(2H)-one] |
| < 100 | C[C@@H]1CCCN1C1CCc2cc(F)c(-c3cnc4[nH]nc(-c5ccc6c(c5)OCCNC6=O)c4c3)cc2CC1 (stereo partly drawn) [Example 58, 8-(5-{3-Fluoro-7-[(2R)-2-methylpyrrolidin-1-yl]-6,7,8,9-tetrahydro-5H-benzo[7]annulen-2-yl}-1H-pyrazolo[3,4-b]pyridin-3-yl)-2,3,4,5-tetrahydro-1,4-benzoxazepin-5-one] |
| < 100 | C[C@@H]1CNC(=O)c2ccc(-c3n[nH]c4ncc(-c5ccc6c(c5)CCC(N5CCC[C@H]5C)CC6)cc34)cc2O1 (stereo partly drawn) [Example 59, (2R)-2-Methyl-8-(5-{7-[(2R)-2-methylpyrrolidin-1-yl]-6,7,8,9-tetrahydro-5H-benzo[7]annulen-2-yl}-1H-pyrazolo[3,4-b]pyridin-3-yl)-2,3,4,5-tetrahydro-1,4-benzoxazepin-5-one] |
| < 100 | C[C@@H]1CCCN1C1CCc2ccc(-c3cnc4[nH]nc(-c5ccc6c(c5F)OCCNC6=O)c4c3)cc2CC1 (stereo partly drawn) [Example 60, 9-Fluoro-8-(5-{7-[(2R)-2-methylpyrrolidin-1-yl]-6,7,8,9-tetrahydro-5H-benzo[7]annulen-2-yl}-1H-pyrazolo[3,4-b]pyridin-3-yl)-2,3,4,5-tetrahydro-1,4-benzoxazepin-5-one] |
| < 100 | C[C@@H]1CCCN1C1CCc2ccc(-c3cnc4[nH]nc(-c5cc6c(cc5F)C(=O)NCCO6)c4c3)cc2CC1 (stereo partly drawn) [Example 61, 7-Fluoro-8-(5-{7-[(2R)-2-methylpyrrolidin-1-yl]-6,7,8,9-tetrahydro-5H-benzo[7]annulen-2-yl}-1H-pyrazolo[3,4-b]pyridin-3-yl)-2,3,4,5-tetrahydro-1,4-benzoxazepin-5-one] |
| < 100 | C[C@@H]1CCCN1C1CCc2ccc(-c3cnc4[nH]nc(-c5ccc6c(c5)O[C@@H](C)CNC6=O)c4c3)cc2CC1 (stereo partly drawn) [Example 62, (2S)-2-Methyl-8-(5-{7-[(2R)-2-methylpyrrolidin-1-yl]-6,7,8,9-tetrahydro-5H-benzo[7]annulen-2-yl}-1H-pyrazolo[3,4-b]pyridin-3-yl)-2,3,4,5-tetrahydro-1,4-benzoxazepin-5-one] |
| < 100 | O=C1NCCOc2cc(-c3n[nH]c4ncc(-c5ccc6c(n5)CCC(N5CCCC5)CC6)cc34)ccc21 (centres unmarked) [Example 63, 8-{5-[7-(Pyrrolidin-1-yl)-5H,6H,7H,8H,9H-cyclohepta[b]pyridin-2-yl]-1H-pyrazolo[3,4-b]pyridin-3-yl}-2,3,4,5-tetrahydro-1,4-benzoxazepin-5-one] |
| < 100 | Cc1cc2c(cc1-c1cnc3[nH]nc(-c4ccc5c(c4)OCCNC5=O)c3c1)CCC(N1CCC[C@H]1C)CC2 (stereo partly drawn) [Example 64, 8-(5-{3-Methyl-7-[(2R)-2-methylpyrrolidin-1-yl]-6,7,8,9-tetrahydro-5H-benzo[7]annulen-2-yl}-1H-pyrazolo[3,4-b]pyridin-3-yl)-2,3,4,5-tetrahydro-1,4-benzoxazepin-5-one] |
| < 100 | C[C@@H]1CCCN1C1CCc2cc(-c3cnc4[nH]nc(-c5ccc6c(c5)OCCNC6=O)c4c3)cc(Cl)c2CC1 (stereo partly drawn) [Example 65, 8-(5-{4-Chloro-7-[(2R)-2-methylpyrrolidin-1-yl]-6,7,8,9-tetrahydro-5H-benzo[7]annulen-2-yl}-1H-pyrazolo[3,4-b]pyridin-3-yl)-2,3,4,5-tetrahydro-1,4-benzoxazepin-5-one] |
| 100 to 1000 | C[C@@H]1CCCN1C1CCc2ccc(-c3cnc4[nH]nc(-c5ccc6c(c5)OCCNS6(=O)=O)c4c3)cc2CC1 (stereo partly drawn) [Example 66, 7-(5-{7-[(2R)-2-Methylpyrrolidin-1-yl]-6,7,8,9-tetrahydro-5H-benzo[7]annulen-2-yl}-1H-pyrazolo[3,4-b]pyridin-3-yl)-3,4-dihydro-2H-5,12,2-benzoxathiazepine-1,1-dione] |
